Assay results from patent US20070099259A1, “ELECTROCHEMICAL ASSAY FOR THE IDENTIFICATION OF MICROORGANISMS” (RAPID LABORATORY MICROSYSTEMS INC., priority 2003, published 2007).
Where two headings read alike, the source gives them in different places.

Experiments:
[1] = tested on: Enterobacter aerogenes ATCC 13048e; experiment: Respiration assay (Example 1), electrochemical ferricyanide/DCIP mediator consumption; type: cell-based; settings: effector 10 mM; for slope: 5 μM DCIP, 50 mM ferricyanide, 35° C.; for normalized slope: area normalized; for relative activity: buffer set as 100%
Experimental: (§1) The ferricyanide solution is added so that the final ferricyanide concentrations is 50 mM.
(§2) The bacterial suspensions were adjusted to a MacFarland Standard of 5.0 (5.0×10sup.8 cfu/mL) or an optical density of 1.2 measured at 625 nm and cell growth was stopped by cooling the bacterial suspension for a minimum of 15 min in an ice-bath.

[2] = tested on: Staphylococcus aureus ATCC 6538P; experiment: as above; type: cell-based; settings: for slope / normalized slope / relative activity: effector 10 mM; for slope: 5 μM DCIP, 50 mM ferricyanide, 35° C.; for normalized slope: area normalized; for relative activity: buffer set as 100%; for Slope data: n=2
Experimental: as §1, §2

[3] = tested on: P. vulgaris ATCC6380; experiment: Relative respiratory activity with 22 effectors (Example 3); type: cell-based, Proteus vulgaris; settings: Proteus vulgaris
From the text: (§3) In this example, each microorganism is subjected to 22 different effector compounds in addition to control measurements. […] For each microorganism, duplicate measurements were made of 22 different effector compounds. In addition, duplicate measurements were made a control test containing no effector compound. One additional measurement was made of a control solution containing the microorganism with ferricyanide but without effector or DCIP.
(§4) In this example, each normalized data set containing duplicate measurements for each of 22 effector compounds is referenced to the duplicate internal controls to allow batch-to-batch comparison. The obtained signals of charge per unit electrode area for the duplicate control measurements are averaged and set at 100% respiratory cycle activity. […] The data set used to generate pattern recognition plots consists of 5 replicate batches (each batch containing duplicate measurements for each of 22 effector compounds) for each cell culture (10 strains). This is used to generate a 50 (columns)×22 (rows) matrix. The matrix is imported into MATLAB (Version 6.0). Factor analysis is performed using the MATLAB Chemometric Toolbox (Version 2.3) and involves the generation of reduced eigenvectors to determine the optimal number of factors, examination of the resulting residuals plots for randomness, and the generation of scores for the first four principle components.

[4] = tested on: E. faecalis; experiment: as above; type: cell-based, Enterococcus faecalis; settings: Enterococcus faecalis; for activity at 10000 µM: read-out: relative %-respiratory activity
From the text: as §3, §4

[5] = tested on: E. aerogenes ATCC13048e; experiment: as above; type: cell-based, Enterobacter aerogenes; settings: Klebsiella aerogenes, ATCC13048E; for activity at 10000 µM: read-out: relative %-respiratory activity
From the text: as §3, §4

[6] = tested on: E. coli B; experiment: as above; type: cell-based; settings: Escherichia coli, 5 μM DCIP, no effector = 100%, n = 10; for activity at 10000 µM: effector 10 mM, read-out: relative %-respiratory activity
From the text: as §3, §4

[7] = tested on: E. coli HB101; experiment: as above; type: cell-based; settings: Escherichia coli
From the text: as §3, §4

[8] = tested on: E. coli JM105; experiment: as above; type: cell-based; settings: Escherichia coli
From the text: as §3, §4

[9] = tested on: E. coli Neotype; experiment: as above; type: cell-based; settings: Escherichia coli, 5 μM DCIP, no effector = 100%, n = 26; for activity at 10000 µM: effector 10 mM, read-out: relative %-respiratory activity
From the text: as §3, §4

[10] = tested on: P. aeruginosa; experiment: as above; type: cell-based, Pseudomonas aeruginosa; settings: Pseudomonas aeruginosa; for activity at 10000 µM: read-out: relative %-respiratory activity
From the text: as §3, §4

[11] = tested on: S. aureus ATCC6538P; experiment: as above; type: cell-based, Staphylococcus aureus; settings: Staphylococcus aureus, ATCC6538P; for activity at 10000 µM: read-out: relative %-respiratory activity
From the text: as §3, §4

[12] = tested on: S. cerevisiae; experiment: as above; type: cell-based, Saccharomyces cerevisiae; settings: Saccharomyces cerevisiae; for activity at 10000 µM: read-out: relative %-respiratory activity
From the text: as §3, §4

[13] = tested on: E. faecalis; experiment: Respiration assay (Example 1), electrochemical ferricyanide/DCIP mediator consumption; type: cell-based, Enterococcus faecalis; settings: n=2
Experimental: as §1, §2

[14] = tested on: Gram-positive bacteria; settings: effector 1 mM instead of 1 mM glucose, relative to + DCIP
Experimental: The following steps are used for each test: (1) preheating for a fixed time (4 min) and a fixed temperature (35° C.) a 150 μL aliquot of buffer containing 1 mM glucose (glc) with or without 5 μM DCIP; (2) this is followed by the addition of 50 μL of the bacterial suspension to the sample for a fixed time (10 min) and at a fixed temperature (35° C.); (3) this is followed by the addition of the mediator (50 μL of 0.4 M potassium ferricyanide) for a fixed time (10 min) and at a fixed temperature (35° C.); and (4) measurement of current at a fixed voltage difference (100 mV) between two platinum electrodes for a fixed time (120 sec) at a fixed temperature (35° C.). The final ferricyanide concentration in the sample prior to reaction with the microorganism is 40 mM.
In this configuration the assay uses two platinum electrodes each having a surface area of approximately 0.03 cm^2. The measured current depends on the concentration of the least-concentrated species of the redox-couple in solution. […] The magnitude of the measured current indicates the quantity of the reduced mediator present in the assay solution. The measured current is integrated over time to produce a plot of total charge against time. The change in total charge is measured between 30 and 120 seconds after the potential is applied. […]

[15] = ATCC6380, effector 10 mM, 5 μM DCIP, no effector = 100%, n = 20, read-out: relative %-respiratory activity
[16] = effector 10 mM, 5 μM DCIP, no effector = 100%, n = 20
[17] = effector 10 mM, 5 μM DCIP, no effector = 100%, n = 26
[18] = HB101, effector 10 mM, 5 μM DCIP, no effector = 100%, n = 18, read-out: relative %-respiratory activity
[19] = JM105, effector 10 mM, 5 μM DCIP, no effector = 100%, n = 10, read-out: relative %-respiratory activity
[20] = effector 10 mM, 5 μM DCIP, no effector = 100%, n = 18
[21] = effector 10 mM, 5 μM DCIP, no effector = 100%, n = 10
[22] = effector 20 mM, 5 μM DCIP, no effector = 100%, n = 20

Structure (SMILES)	slope [1] [μC/min]	normalized slope [1] [μC/min*mm^2]	relative activity [1] [%]	slope [2] [μC/min]	normalized slope [2] [μC/min*mm^2]	relative activity [2] [%]	activity at 10000 µM [3, 15] [%]	activity at 10000 µM [4, 16] [%]	activity at 10000 µM [5, 17] [%]	activity at 10000 µM [6] [%]	activity at 10000 µM [7, 18] [%]	activity at 10000 µM [8, 19] [%]	activity at 10000 µM [9] [%]	activity at 10000 µM [10, 20] [%]	activity at 10000 µM [11, 16] [%]	activity at 10000 µM [12, 21] [%]	further results
CC(=O)C(=O)O [Pyruvic acid]	23.4	13.7	143	14.8	8.7	164	344	136	209	120	169	249	126	125	313	109	
N=C(N)NCCC[C@H](N)C(=O)O [L-arginine]				9.1	5.3	100				137			114				activity at 10000 µM ([3]; ATCC6380, read-out: relative %-respiratory activity): 149%; activity at 10000 µM [4]: 130%; activity at 10000 µM [5]: 129%; activity at 10000 µM ([7]; HB101, read-out: relative %-respiratory activity): 114%; activity at 10000 µM ([8]; JM105, read-out: relative %-respiratory activity): 163%; activity at 10000 µM [10]: 155%; activity at 10000 µM [11]: 132%; activity at 10000 µM [12]: 139%
O=[N+]([O-])[O-].[K+] [nitrate, potassium nitrate]	3.7	2.2	23	6.9	4.1	76											
CC(O)C(=O)O (centres unmarked) [Lactic acid, lactic acid]	27.7	16.3	169	24.8	14.6	275	457	118	182	192	171	303	126	122	622	123	
O=C[C@@H](O)[C@@H](O)[C@H](O)[C@H](O)CO [D-mannose]																	Slope data ([2]; substrate 1 mM): 16.6 μC/min; Slope data ([2]; substrate 10 mM): 14.0 μC/min; Slope data ([2]; substrate 50 mM): 15.1 μC/min; Slope data ([13]; substrate 1 mM): 17.8 μC/min; Slope data ([13]; substrate 10 mM): 19.6 μC/min; Slope data ([13]; substrate 50 mM): 14.5 μC/min; activity at 20000 µM ([3]; ATCC6380, effector 20 mM, 5 μM DCIP, no effector = 100%, n = 20): 250%; activity at 20000 µM [4, 22]: 654%; activity at 20000 µM ([5]; effector 20 mM, 5 μM DCIP, no effector = 100%, n = 26): 296%; activity at 20000 µM ([6]; effector 20 mM): 152%; activity at 20000 µM ([7]; HB101, effector 20 mM, 5 μM DCIP, no effector = 100%, n = 18): 222%; activity at 20000 µM ([8]; JM105, effector 20 mM, 5 μM DCIP, no effector = 100%, n = 10): 212%; activity at 20000 µM ([9]; effector 20 mM): 139%; activity at 20000 µM ([10]; effector 20 mM, 5 μM DCIP, no effector = 100%, n = 18): 108%; activity at 20000 µM [11, 22]: 262%; activity at 20000 µM ([12]; effector 20 mM, 5 μM DCIP, no effector = 100%, n = 10): 125%; respiratory signals in the absence of 5 μM DCIP [14]: below 60%
